In ChEMBL document CHEMBL1141380 (J Med Chem, 2007):
Converted amounts (≈) assume the structure as drawn.

Columns and labels:
[1] = target: Vascular endothelial growth factor receptor 2 (Homo sapiens, UniProt P35968)
Description: Inhibition of KDR by HTRF assay

[2] = target: T1, Angiopoietin-1 receptor (Homo sapiens, UniProt Q02763); test: Inhibition of Tie2 by HTRF assay
[3] = Clearance in iv dosed rat; assay type: ADME, organism-based; settings: in vivo
[4] = Oral bioavailability in Sprague-Dawley rat at 10 mg/kg, po; assay type: ADME, organism-based; settings: in vivo
[5] = target: Proto-oncogene tyrosine-protein kinase Src (Homo sapiens, UniProt P12931); test: inhibition of Src
[6] = target: Ephrin type-B receptor 4 (Homo sapiens, UniProt P54760); test: Inhibition of EPHB4
[7] = target: Tyrosine-protein kinase Lyn (Homo sapiens, UniProt P07948); test: Inhibition of Lyn
[8] = target: Mitogen-activated protein kinase 14 (Homo sapiens, UniProt Q16539); test: Inhibition of p38alpha
[9] = target: Mast/stem cell growth factor receptor Kit (Homo sapiens, UniProt P10721); test: Inhibition of cKit
[10] = target: T1, Angiopoietin-1 receptor; test: Inhibition of angiopoietin-1-stimulated Tie2 phosphorylation in EA.hy926 cells; assay type: functional, cell-based
[11] = Solubility in 0.01N HCl; assay type: physicochemical

T1 sequence (Q02763 whole entry): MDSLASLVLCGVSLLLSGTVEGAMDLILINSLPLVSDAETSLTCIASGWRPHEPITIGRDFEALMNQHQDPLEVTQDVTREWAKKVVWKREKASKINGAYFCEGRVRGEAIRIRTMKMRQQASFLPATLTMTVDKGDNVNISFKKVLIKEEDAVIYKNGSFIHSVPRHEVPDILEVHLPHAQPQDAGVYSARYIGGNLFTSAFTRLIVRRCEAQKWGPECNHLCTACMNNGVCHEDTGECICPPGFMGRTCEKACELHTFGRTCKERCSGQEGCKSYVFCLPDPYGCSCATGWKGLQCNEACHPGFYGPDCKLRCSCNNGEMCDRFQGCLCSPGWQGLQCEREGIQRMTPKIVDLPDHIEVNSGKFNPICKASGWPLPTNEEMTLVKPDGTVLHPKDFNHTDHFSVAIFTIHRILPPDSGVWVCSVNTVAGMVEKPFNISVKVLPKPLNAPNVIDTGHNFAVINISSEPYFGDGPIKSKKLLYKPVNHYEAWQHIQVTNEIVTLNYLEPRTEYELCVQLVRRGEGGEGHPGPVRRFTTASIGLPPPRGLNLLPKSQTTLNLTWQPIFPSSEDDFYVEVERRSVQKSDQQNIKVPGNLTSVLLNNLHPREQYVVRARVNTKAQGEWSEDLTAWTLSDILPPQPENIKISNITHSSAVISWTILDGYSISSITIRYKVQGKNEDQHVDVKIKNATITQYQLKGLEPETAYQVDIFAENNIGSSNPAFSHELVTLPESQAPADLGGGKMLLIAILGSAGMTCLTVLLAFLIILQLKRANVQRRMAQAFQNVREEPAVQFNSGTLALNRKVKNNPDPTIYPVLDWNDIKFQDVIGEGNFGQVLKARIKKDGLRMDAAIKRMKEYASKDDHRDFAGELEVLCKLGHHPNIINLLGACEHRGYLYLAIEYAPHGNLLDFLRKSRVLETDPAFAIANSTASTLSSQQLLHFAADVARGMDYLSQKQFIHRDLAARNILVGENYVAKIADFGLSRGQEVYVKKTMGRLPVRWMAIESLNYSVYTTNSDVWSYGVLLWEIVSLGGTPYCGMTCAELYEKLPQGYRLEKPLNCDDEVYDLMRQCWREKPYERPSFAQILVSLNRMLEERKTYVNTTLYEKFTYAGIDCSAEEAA
Chain of Vascular endothelial growth factor receptor 2 (P35968 whole entry): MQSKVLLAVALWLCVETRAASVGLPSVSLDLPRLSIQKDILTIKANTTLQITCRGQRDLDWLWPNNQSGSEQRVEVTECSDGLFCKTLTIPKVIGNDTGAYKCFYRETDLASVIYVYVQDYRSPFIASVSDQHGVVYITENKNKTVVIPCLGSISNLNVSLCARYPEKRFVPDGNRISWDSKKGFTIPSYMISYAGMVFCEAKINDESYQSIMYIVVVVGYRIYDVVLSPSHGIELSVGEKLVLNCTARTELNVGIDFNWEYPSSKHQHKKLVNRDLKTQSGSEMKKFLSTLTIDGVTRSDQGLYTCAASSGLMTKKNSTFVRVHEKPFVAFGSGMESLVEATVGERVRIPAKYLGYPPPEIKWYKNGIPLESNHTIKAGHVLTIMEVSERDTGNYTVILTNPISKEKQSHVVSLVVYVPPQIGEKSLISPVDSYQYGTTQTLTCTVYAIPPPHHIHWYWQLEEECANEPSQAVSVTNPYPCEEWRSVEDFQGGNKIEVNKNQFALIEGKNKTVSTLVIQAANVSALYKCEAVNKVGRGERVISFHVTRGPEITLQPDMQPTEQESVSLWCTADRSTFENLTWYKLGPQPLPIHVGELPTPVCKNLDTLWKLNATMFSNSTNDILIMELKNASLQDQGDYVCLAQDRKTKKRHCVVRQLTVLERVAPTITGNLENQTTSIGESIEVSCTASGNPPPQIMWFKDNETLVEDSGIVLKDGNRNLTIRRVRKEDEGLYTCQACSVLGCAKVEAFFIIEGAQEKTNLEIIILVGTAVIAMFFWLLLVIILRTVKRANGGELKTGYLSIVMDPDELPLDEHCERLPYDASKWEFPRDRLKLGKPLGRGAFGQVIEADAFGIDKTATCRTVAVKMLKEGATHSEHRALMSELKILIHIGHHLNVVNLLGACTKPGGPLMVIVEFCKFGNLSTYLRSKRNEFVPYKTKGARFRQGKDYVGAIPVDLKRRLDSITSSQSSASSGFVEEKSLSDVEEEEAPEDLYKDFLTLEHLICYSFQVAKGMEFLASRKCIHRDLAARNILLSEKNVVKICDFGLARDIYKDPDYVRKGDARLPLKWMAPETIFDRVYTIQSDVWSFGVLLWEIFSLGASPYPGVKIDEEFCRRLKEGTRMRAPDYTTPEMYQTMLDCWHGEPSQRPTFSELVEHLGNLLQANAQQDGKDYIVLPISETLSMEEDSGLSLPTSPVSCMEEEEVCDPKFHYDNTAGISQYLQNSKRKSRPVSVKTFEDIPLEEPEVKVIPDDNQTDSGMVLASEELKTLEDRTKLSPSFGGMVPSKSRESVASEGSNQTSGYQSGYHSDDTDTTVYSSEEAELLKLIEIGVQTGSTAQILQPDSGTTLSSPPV
Chain of Tyrosine-protein kinase Lyn (P07948 whole entry): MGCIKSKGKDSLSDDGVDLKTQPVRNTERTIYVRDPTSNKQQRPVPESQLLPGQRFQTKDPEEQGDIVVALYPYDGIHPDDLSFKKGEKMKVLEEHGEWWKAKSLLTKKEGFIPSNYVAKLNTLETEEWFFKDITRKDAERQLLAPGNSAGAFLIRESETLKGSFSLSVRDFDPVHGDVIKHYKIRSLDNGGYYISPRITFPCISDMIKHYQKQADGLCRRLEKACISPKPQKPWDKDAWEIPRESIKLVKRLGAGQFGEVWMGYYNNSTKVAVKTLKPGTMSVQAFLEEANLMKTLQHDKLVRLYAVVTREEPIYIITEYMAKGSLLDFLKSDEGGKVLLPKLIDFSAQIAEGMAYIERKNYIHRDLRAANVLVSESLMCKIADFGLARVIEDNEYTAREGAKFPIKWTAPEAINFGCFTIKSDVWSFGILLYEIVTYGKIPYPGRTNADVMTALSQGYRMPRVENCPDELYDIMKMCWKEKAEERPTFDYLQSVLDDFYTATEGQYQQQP
Chain of Mitogen-activated protein kinase 14 (Q16539 whole entry): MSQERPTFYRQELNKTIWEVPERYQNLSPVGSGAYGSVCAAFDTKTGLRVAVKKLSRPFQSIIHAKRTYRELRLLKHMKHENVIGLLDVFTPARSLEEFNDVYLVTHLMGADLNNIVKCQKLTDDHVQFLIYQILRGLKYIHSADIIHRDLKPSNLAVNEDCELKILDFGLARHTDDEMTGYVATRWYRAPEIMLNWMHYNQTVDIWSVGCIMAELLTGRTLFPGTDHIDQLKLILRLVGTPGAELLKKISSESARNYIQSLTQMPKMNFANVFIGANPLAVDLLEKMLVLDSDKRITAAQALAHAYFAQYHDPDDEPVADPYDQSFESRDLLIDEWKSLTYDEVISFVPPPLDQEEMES
Chain of Ephrin type-B receptor 4 (P54760 whole entry): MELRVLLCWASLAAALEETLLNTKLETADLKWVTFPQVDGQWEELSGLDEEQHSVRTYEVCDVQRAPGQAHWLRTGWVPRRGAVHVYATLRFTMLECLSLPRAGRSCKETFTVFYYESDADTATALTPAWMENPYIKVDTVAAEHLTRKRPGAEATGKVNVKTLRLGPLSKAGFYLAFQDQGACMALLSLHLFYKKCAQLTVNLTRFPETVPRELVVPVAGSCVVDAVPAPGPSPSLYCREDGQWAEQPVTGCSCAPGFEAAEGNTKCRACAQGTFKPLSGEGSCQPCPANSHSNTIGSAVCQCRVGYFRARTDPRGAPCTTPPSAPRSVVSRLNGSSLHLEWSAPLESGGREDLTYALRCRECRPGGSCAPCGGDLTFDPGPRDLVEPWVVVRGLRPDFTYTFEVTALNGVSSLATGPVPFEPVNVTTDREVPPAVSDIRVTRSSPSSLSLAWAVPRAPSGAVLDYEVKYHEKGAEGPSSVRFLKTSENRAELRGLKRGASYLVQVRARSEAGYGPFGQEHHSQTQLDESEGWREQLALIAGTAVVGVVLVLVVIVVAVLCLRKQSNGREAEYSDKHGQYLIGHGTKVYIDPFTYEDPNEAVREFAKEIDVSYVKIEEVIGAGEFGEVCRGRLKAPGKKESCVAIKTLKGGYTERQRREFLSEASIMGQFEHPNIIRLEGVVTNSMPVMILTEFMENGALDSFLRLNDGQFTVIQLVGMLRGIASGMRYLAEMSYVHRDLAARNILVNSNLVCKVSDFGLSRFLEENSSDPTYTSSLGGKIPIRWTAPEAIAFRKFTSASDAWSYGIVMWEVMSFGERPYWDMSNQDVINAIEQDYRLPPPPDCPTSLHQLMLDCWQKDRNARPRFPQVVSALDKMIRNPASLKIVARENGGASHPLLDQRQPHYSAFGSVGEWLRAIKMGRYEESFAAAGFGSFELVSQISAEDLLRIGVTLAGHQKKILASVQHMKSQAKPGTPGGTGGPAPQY
Chain of Proto-oncogene tyrosine-protein kinase Src (P12931 2-536 limits assumed): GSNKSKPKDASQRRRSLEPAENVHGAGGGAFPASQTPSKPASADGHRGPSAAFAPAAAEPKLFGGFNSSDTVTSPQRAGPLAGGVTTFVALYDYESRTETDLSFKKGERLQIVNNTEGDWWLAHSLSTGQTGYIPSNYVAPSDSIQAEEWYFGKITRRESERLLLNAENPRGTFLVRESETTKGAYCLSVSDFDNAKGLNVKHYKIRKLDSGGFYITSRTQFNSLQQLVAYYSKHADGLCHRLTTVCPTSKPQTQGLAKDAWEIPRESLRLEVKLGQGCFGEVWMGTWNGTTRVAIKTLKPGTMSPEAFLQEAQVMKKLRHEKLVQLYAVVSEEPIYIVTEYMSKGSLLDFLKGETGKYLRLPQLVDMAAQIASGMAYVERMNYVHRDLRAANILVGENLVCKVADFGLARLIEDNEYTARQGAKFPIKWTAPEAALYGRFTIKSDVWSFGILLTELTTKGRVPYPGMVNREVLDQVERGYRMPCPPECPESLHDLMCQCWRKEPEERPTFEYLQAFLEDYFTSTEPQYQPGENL

Row | SMILES | IC50 [1] [nM] | IC50 [2] [nM] | clearance [3] [mL/min/kg] | further results
1 | CNc1nccc(-c2cc(C)cnc2Oc2cccc(C(=O)Nc3cc(C(F)(F)F)ccc3N3CCCCC3)c2C)n1 | 2600 | 388 |  | 
2 | Cc1ccc(C(=O)Nc2ccccc2)cc1Nc1ncccc1-c1ccncn1 | 435 |  |  | 
3 | Cc1ccc(C(=O)Nc2cccc(C(F)(F)F)c2)cc1Nc1ncccc1-c1ccncn1 | 4 |  |  | IC50 [5]: < 25 nM; IC50 [6]: < 25 nM; IC50 [7]: < 25 nM; IC50 [8]: < 25 nM; IC50 [9]: < 25 nM
4 | COc1ccc(C2CCCCC2)cc1NC(=O)c1ccc(C)c(Oc2ncccc2-c2ncnc3cc(OC)c(OC)cc23)c1 | > 25000 | > 25000 |  | 
5 | Cc1ccc(C(=O)Nc2ccc(C(F)(F)F)cc2)cc1Oc1ncccc1-c1ccncn1 | 705 |  |  | solubility [11]: 5 µg/mL (≈ 11.1 µM)
6 | COc1ccc(C2CCCCC2)cc1NC(=O)c1ccc(C)c(Oc2ncccc2-c2ccnc3ccccc23)c1 | > 25000 | > 25000 |  | 
7 | Cc1ccc(C(=O)Nc2cc(C(F)(F)F)ccc2N2CCOCC2)cc1Oc1ncccc1-c1ccncn1 | > 25000 |  |  | 

Now from value to compound, other results behind:

Row | IC50 [1] [nM] | IC50 [2] [nM] | clearance [3] [mL/min/kg] | SMILES | further results
8 | 46 |  | 12 | CNc1nccc(-c2cccnc2Oc2ccc(F)c(C(=O)Nc3cc(C(F)(F)F)ccc3N(C)CCCN(C)C)c2)n1 | bioavailability [4]: 32%
9 | 58 |  |  | COc1ccc(C(F)(F)F)cc1NC(=O)c1ccc(C)c(Nc2ncccc2-c2ccncn2)c1 | 
10 | > 25000 | 13 | 45.5 | CNc1ncnc(-c2cccnc2Oc2ccc(F)c(C(=O)Nc3cc(C4CC4)ccc3N(C)CCCN(C)C)c2)n1 | IC50 [10]: 39 nM
11 | 675 |  | 21.6 | CNc1nccc(-c2cccnc2Oc2cc(C(=O)Nc3cc(C(F)(F)F)ccc3N3CCCCC3)ccc2Cl)n1 | 
12 | 4000 | 59 | 15.3 | CNc1ncnc(-c2cccnc2Oc2cc(C(=O)Nc3cc(C(F)(F)F)ccc3N(C)CCCN(C)C)ccc2C)n1 | IC50 [10]: 140 nM
13 | > 8000 |  | 70 | CNc1ncnc(-c2cccnc2Oc2ccc(F)c(C(=O)Nc3cc(C(C)C)ccc3N(C)CCCN(C)C)c2)n1 | 
14 | 1300 |  |  | Cc1ccc(C(=O)Nc2cc(C(F)(F)F)ccc2N2CCCCC2)cc1Oc1ncccc1-c1ccncn1 | 
15 | 461 |  |  | CNc1nccc(-c2cccnc2Oc2cc(C(=O)Nc3cc(C(F)(F)F)ccc3N3CCCCC3)ccc2C)n1 | 
